Data published in patent US6008352A, “1-(isoquinolin-1-yl)-4-(1-phenylmethyl) piperazines; dopamine receptor subtype specific ligands” (Neurogen Corporation, priority 1998, dated 1999).

What was measured:
D4 receptor = D4 receptor binding assay (3H-YM 09151-2 displacement); set-up: species or system African Green monkey; details: 0.5 nM 3H-YM 09151-2; nonspecific binding with 1 mM spiperone
Procedure: (§1) 1. Assay For D2 And D4 Receptor Binding Activity
(§2) Pellets of COS cells containing recombinantly produced D2 or D4 receptors from African Green monkey are used for the assays. The sample is homogenized in 100 volumes (w/vol) of 0.05 M Tris HCl buffer at 4° C. and pH 7.4. The sample is then centrifuged at 30,000×g and resuspended and rehomogenized. The sample is again centrifuged as described above and the final tissue sample is frozen until use. The tissue is resuspended 1:20 (wt/vol) in 0.05 M Tris HCl buffer containing 100 mM NaCl.
(§3) Incubations are carried out at […] and contain 0.4 ml of tissue sample, 0.5 nM ^3 H-YM 09151-2 and the compound of interest in a total incubation of 1.0 ml. Nonspecific binding is defined as that binding found in the presence of 1 mM spiperone; without further additions, nonspecific binding is less than 20% of total binding. Binding characteristics for representative examples of this invention for the D2 and D4 receptor subtypes are shown in Table 2 below for rat striatal homogenates. The binding characteristics of compounds of Formula I for the D4 receptor, expressed in nM, generally range from about 0.5 nanomolar (nM) to about 25 nanomolar (nM). These compounds typically have binding constants for the D2 receptor of from about 200 nM to more than 1000 nM.

D2 receptor = target: T1, D2 receptor (Chlorocebus aethiops, UniProt P52702); test: D2 receptor binding assay (3H-YM 09151-2 displacement); set-up: species or system African Green monkey; details: 0.5 nM 3H-YM 09151-2; nonspecific binding with 1 mM spiperone
T1 construct: expressed in transfected cells; host or cells: COS cells
Procedure: as §1, §2, §3

T1 sequence (P52702 whole entry): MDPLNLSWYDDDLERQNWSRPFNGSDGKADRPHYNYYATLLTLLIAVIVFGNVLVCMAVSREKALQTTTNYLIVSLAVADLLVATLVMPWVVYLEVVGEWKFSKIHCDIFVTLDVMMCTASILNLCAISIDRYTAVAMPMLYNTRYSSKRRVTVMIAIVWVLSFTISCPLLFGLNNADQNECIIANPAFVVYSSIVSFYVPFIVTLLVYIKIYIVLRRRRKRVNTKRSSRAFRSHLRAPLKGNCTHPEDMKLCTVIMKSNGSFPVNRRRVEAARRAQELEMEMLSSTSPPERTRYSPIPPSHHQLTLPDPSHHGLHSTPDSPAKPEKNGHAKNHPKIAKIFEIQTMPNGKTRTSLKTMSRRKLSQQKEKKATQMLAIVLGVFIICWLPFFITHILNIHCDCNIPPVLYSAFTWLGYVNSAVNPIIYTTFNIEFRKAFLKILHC

Ki (D4 receptor) [nM] | Ki (D2 receptor) [nM] | SMILES
9 | 220 | Cc1ccc(CN2CCN(c3nccc4ccccc34)CC2)cc1 [Compound 6]
5 | 556 | Clc1ccc(CN2CCN(c3nccc4ccccc34)CC2)cc1 [Compound 1]
13 | 1000 | Fc1ccc(CN2CCN(c3nccc4ccccc34)CC2)cc1F [Compound 2]
19 |  | c1ccc2c(N3CCN(Cc4ccc5c(c4)OCO5)CC3)nccc2c1 [Compound 4]
